Source: patent US12139498B1, “Positive allosteric modulators of the muscarinic acetylcholine receptor M4” (Vanderbilt University, priority 2023, dated 2024)

Target: T1, Human M4 (Homo sapiens, UniProt P08173)
T1 sequence (P08173 1-479): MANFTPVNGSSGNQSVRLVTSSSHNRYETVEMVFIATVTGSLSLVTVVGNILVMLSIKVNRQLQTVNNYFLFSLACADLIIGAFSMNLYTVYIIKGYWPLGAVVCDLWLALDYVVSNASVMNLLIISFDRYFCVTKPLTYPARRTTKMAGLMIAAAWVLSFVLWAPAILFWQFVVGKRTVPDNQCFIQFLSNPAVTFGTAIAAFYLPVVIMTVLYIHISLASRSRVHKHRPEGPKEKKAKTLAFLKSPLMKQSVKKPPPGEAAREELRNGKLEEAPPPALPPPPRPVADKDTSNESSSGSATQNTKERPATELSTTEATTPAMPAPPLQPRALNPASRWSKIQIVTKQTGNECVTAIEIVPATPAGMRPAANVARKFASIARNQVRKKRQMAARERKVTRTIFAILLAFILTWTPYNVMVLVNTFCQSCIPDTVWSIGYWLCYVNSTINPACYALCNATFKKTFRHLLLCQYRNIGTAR
Experiment: M4 cell-based functional assay (calcium mobilization)
Parameters: expressed in transfected cells
Conditions: for Emax at 30 µM: % ACh maximum at 30 μM; for EC50: CHO-K1 hM4-Gqi5 cells, calcium flux, increase in EC20 acetylcholine response
Procedure: Human (h) and rat (r) M4 CDNAs, along with the chimeric G protein Gqi5, were transfected into Chinese hamster ovary (CHO-K1) cells purchased from the American Type Culture Collection using Lipofectamine2000. The transfected cells were subjected to selection antibiotic treatment to generate stable cell lines; G418 sulfate (1 mg/ml) for selecting M4 expressing cells and Hygromycin B (500 μg/mL) for selecting Gqi5 expressing cells. The resulting polyclones were further screened to obtain monoclones of hM4-Gqi5 and rM4-Gqi5 for compound screening assay. Stable monoclone cells were maintained in Ham's F-12 medium containing 10% heat-inactivated fetal bovine serum (FBS), 1× Antibiotic/Antimycotic, 20 mM HEPES, 500 μg/mL G418 sulfate, and 200 μg/mL Hygromycin B in 37° C. humidified incubators in the presence of 5% CO2.
The high throughput assay was employed to measure receptor-induced mobilization of intracellular calcium to determine compound activity. Test compound was added to cells expressing the muscarinic receptors that were loaded with calcium sensitive fluorescent dye. After a ˜2.5 minute incubation period, a submaximal (EC20) concentration of acetylcholine was added, and the response measured. This kinetic assay allows for simultaneous screening and potency determination of multiple pharmacological modes of action including agonist and potentiator activity. CHO-K1 cells stably expressing muscarinic receptors were plated in growth medium lacking G418 and hygromycin at 15,000 cells/20 μL/well in Greiner 384-well black-walled, tissue culture (TC)-treated, clear-bottom plates (Greiner Bio-One). Cells were incubated overnight at 37° C. and 5% CO2. The next day, calcium assay buffer (Hank's balanced salt solution (HBSS), 20 mM HEPES, 2.5 mM Probenecid, 4.16 mM sodium bicarbonate (Sigma-Aldrich, St. Louis, MO)) was prepared to dilute compounds, agonists, and Fluo-4-acetomethoxyester (Fluo-4-AM), fluorescent calcium indicator dye. Compounds were serially diluted 1:3 into 10 point concentration response curves in DMSO using the Bravo Liquid Handler (Agilent, Santa Clara, CA), transferred to a 384 well daughter plates using an Echo acoustic liquid handler (Beckman Coulter, Indianapolis, Indiana), and diluted in assay Buffer to a 2× final concentration. The agonist plates were prepared using acetylcholine (ACh, Sigma-Aldrich, St. Louis, MO) concentrations for the EC20 and ECMAX responses by diluting in assay buffer to a 5× final concentration. The 2× dye solution (2.3 μM) was prepared by mixing a 2.3 mM Fluo-4-AM stock in DMSO with 10% (w/v) pluronic acid F-127 in a 1:1 ratio in assay buffer. Using a microplate washer (BioTek, Winooski, VT), cells were washed with assay buffer for 3 times to remove medium. After the final wash, 20 μL of assay buffer remained in the cell plates. Immediately, 20 μL of the 2× dye solution (final 1.15 μM) was added to each well of the cell plate using a Multidrop Combi dispenser (Thermo Fisher, Waltham, MA). After cells were incubated with the dye solutions for 45 min at 37° C. in the presence of 5% CO2, the dye solutions were removed and replaced with assay buffer using a microplate washer, leaving 20 μL of assay buffer in the cell plate.
The prepared compound, agonist, and cell plates were placed inside the Functional Drug Screening System uCell (FDSS uCell, Hamamatsu, Japan) to measure the calcium flux.
The triple add protocol was used to measure Ca kinetics; Compound, ACh for EC2O, and ACh for EC80 adds in an order. Briefly, after establishment of a fluorescence baseline for 2 seconds (excitation, 480 nm; emission, 530 nm), first add occurred by adding 20 μL of test compound to the cells, and the response was measured for 140 seconds. This is followed by second add; 10 μL (5×) of an EC20 concentration of ACh agonist was added to the cells, and the response of the cells was measured for 125 seconds. […]

`Cc1c(N2CCc3nc(C4CC4)sc3C2)nc2nn(CC3CC3)c(=O)n2c1C` [Compound 75, 7-(2-cyclopropyl-6,7-dihydrothiazolo[5,4-c]pyridin-5(4H)-yl)-2-(cyclopropylmethyl)-5,6-dimethyl-[1,2,4]triazolo[4,3-a]pyrimidin-3(2H)-one] gave an Emax at 30 µM of 111% and an EC50 of 15 nM.
`Cc1cc2nccnc2nc1N1CCc2nc(C3CC3(C)C)sc2C1` (stereo not shown) [Compound 63, 2-(2,2-dimethylcyclopropyl)-5-(7-methylpyrido[2,3-b]pyrazin-6-yl)-4,5,6,7-tetrahydrothiazolo[5,4-c]pyridine] showed an Emax at 30 µM of 63% and an EC50 of 738 nM.
`Cc1cc2nc(C)c(F)c(=O)n2nc1N1CCc2nc(Br)sc2C1` [Compound 40, 7-(2-bromo-6,7-dihydrothiazolo[5,4-c]pyridin-5(4H)-yl)-3-fluoro-2,8-dimethyl-4H-pyrimido[1,2-b]pyridazin-4-one] gave an Emax at 30 µM of 85% and an EC50 of 94 nM.
For `Cc1cc(C#N)cnc1N1CCc2nc(C3CC3)sc2C1` [Compound 16, 6-(2-cyclopropyl-6,7-dihydrothiazolo[5,4-c]pyridin-5(4H)-yl)-5-methylnicotinonitrile], the Emax at 30 µM was 84% and the EC50 was 103 nM.
`Cc1cc2nc(C(=O)N3CC4(COC4)C3)cc(=O)n2nc1N1CCc2nc(Br)sc2C1` [Compound 47, 7-(2-bromo-6,7-dihydrothiazolo[5,4-c]pyridin-5(4H)-yl)-8-methyl-2-(2-oxa-6-azaspiro[3.3]heptane-6-carbonyl)-4H-pyrimido[1,2-b]pyridazin-4-one] showed an Emax at 30 µM of 66% and an EC50 of 1940 nM.
`Cc1cc2nc(C(F)F)cc(=O)n2nc1N1CCc2nc(Br)sc2C1` [Compound 39, 7-(2-bromo-6,7-dihydrothiazolo[5,4-c]pyridin-5(4H)-yl)-2-(difluoromethyl)-8-methyl-4H-pyrimido[1,2-b]pyridazin-4-one] showed an Emax at 30 µM of 88% and an EC50 of 75 nM.
Work on `Cc1nc(Cl)c(C)c(N2CCc3nc(Nc4ccccc4F)sc3C2)n1` [Compound 14, 5-(6-chloro-2,5-dimethylpyrimidin-4-yl)-N-(2-fluorophenyl)-4,5,6,7-tetrahydrothiazolo[5,4-c]pyridin-2-amine] yielded an Emax at 30 µM of 51% and an EC50 of 5230 nM.
For `Cc1cc(C#N)cnc1N1CCc2nc(NCc3cccc(F)c3)sc2C1` [Compound 18, 6-(2-((3-fluorobenzyl)amino)-6,7-dihydrothiazolo[5,4-c]pyridin-5(4H)-yl)-5-methylnicotinonitrile], the Emax at 30 µM was 44% and the EC50 was 4110 nM.
Compound `Cc1coc2ncnc(N3CCc4nc(Br)sc4C3)c12` [Compound 22, 4-(2-bromo-6,7-dihydrothiazolo[5,4-c]pyridin-5(4H)-yl)-5-methylfuro[2,3-d]pyrimidine] has an Emax at 30 µM of 96% and an EC50 of 106 nM.
With `Cc1cc2nccnc2nc1N1CCc2nc(C3CC3)sc2C1` [Compound 54, 2-cyclopropyl-5-(7-methylpyrido[2,3-b]pyrazin-6-yl)-4,5,6,7-tetrahydrothiazolo[5,4-c]pyridine] the Emax at 30 µM was 82% and the EC50 was 32 nM.
With `Cc1cc(C#N)cnc1N1CCc2nc(-c3cncs3)sc2C1` [Compound 3, 5-methyl-6-(2-(thiazol-5-yl)-6,7-dihydrothiazolo[5,4-c]pyridin-5(4H)-yl)nicotinonitrile] the Emax at 30 µM was 45% and the EC50 was > 10000 nM.
`Cc1cc2nc(C(=O)NC3CC(CC(F)(F)F)C3)cc(=O)n2nc1N1CCc2nc(Br)sc2C1` (stereo not shown) [Compound 48, 7-(2-bromo-6,7-dihydrothiazolo[5,4-c]pyridin-5(4H)-yl)-8-methyl-4-oxo-N-(3-(2,2,2-trifluoroethyl)cyclobutyl)-4H-pyrimido[1,2-b]pyridazine-2-carboxamide] gave an Emax at 30 µM of 87% and an EC50 of 2180 nM.
`[2H]C([2H])([2H])c1nc2c(s1)CN(c1ncc(C#N)cc1C)CC2` [Compound 20, 5-methyl-6-(2-(methyl-d3)-6,7-dihydrothiazolo[5,4-c]pyridin-5(4H)-yl)nicotinonitrile] was tested, and the Emax at 30 µM was 101% and the EC50 was 243 nM.
`Cc1cc2c(N3CCc4nc(Br)sc4C3)ncnc2s1` [Compound 24, 2-bromo-5-(6-methylthieno[2,3-d]pyrimidin-4-yl)-4,5,6,7-tetrahydrothiazolo[5,4-c]pyridine] gave an Emax at 30 µM of 102% and an EC50 of 50 nM.
In the case of `Cc1cn2c(=O)n(C)nc2nc1N1CCc2nc(C3CCC3)sc2C1` [Compound 67, 7-(2-cyclobutyl-6,7-dihydrothiazolo[5,4-c]pyridin-5(4H)-yl)-2,6-dimethyl-[1,2,4]triazolo[4,3-a]pyrimidin-3(2H)-one], the Emax at 30 µM is reported as 71% and the EC50 is reported as 4 nM.
Compound `Cc1cc2nc(=O)cc(C)n2nc1N1CCc2nc(Br)sc2C1` [Compound 51, 7-(2-bromo-6,7-dihydrothiazolo[5,4-c]pyridin-5(4H)-yl)-4,8-dimethyl-2H-pyrimido[1,2-b]pyridazin-2-one] has an Emax at 30 µM of 71% and an EC50 of 378 nM.
`Cc1cc(=O)n2nc(N3CCc4nc(Br)sc4C3)c(C)cc2n1` [Compound 35, 7-(2-bromo-6,7-dihydrothiazolo[5,4-c]pyridin-5(4H)-yl)-2,8-dimethyl-4H-pyrimido[1,2-b]pyridazin-4-one] gave an Emax at 30 µM of 89% and an EC50 of 291 nM.
With `[2H]C([2H])([2H])n1nc2nc(N3CCc4nc(C5(F)CC5)sc4C3)c(C)c(C)n2c1=O` [Compound 71, 7-(2-(1-fluorocyclopropyl)-6,7-dihydrothiazolo[5,4-c]pyridin-5(4H)-yl)-5,6-dimethyl-2-(methyl-d3)-[1,2,4]triazolo[4,3-a]pyrimidin-3(2H)-one] the Emax at 30 µM was 83% and the EC50 was 7 nM.
`Cc1c(N2CCc3nc(C4CC4)sc3C2)nc2nn(CC3CC(F)(F)C3)c(=O)n2c1C` [Compound 76, 7-(2-cyclopropyl-6,7-dihydrothiazolo[5,4-c]pyridin-5(4H)-yl)-2-((3,3-difluorocyclobutyl)methyl)-5,6-dimethyl-[1,2,4]triazolo[4,3-a]pyrimidin-3(2H)-one] gave an Emax at 30 µM of 105% and an EC50 of 87 nM.
For `Cc1noc2ncnc(N3CCc4nc(Br)sc4C3)c12` [Compound 25, 4-(2-bromo-6,7-dihydrothiazolo[5,4-c]pyridin-5(4H)-yl)-3-methylisoxazolo[5,4-d]pyrimidine], the Emax at 30 µM was 113% and the EC50 was 1290 nM.
For `Cc1cc2nccnc2nc1N1CCc2nc(C(F)(F)F)sc2C1` [Compound 62, 5-(7-methylpyrido[2,3-b]pyrazin-6-yl)-2-(trifluoromethyl)-4,5,6,7-tetrahydrothiazolo[5,4-c]pyridine], the Emax at 30 µM was 72% and the EC50 was 93 nM.
For `Cc1cc2nccc(=O)n2nc1N1CCc2nc(Br)sc2C1` [Compound 34, 7-(2-bromo-6,7-dihydrothiazolo[5,4-c]pyridin-5(4H)-yl)-8-methyl-4H-pyrimido[1,2-b]pyridazin-4-one], the Emax at 30 µM was 70% and the EC50 was 6070 nM.
Work on `Brc1nc2c(s1)CN(c1ncnc3ccsc13)CC2` [Compound 26, 2-bromo-5-(thieno[3,2-d]pyrimidin-4-yl)-4,5,6,7-tetrahydrothiazolo[5,4-c]pyridine] yielded an Emax at 30 µM of 98% and an EC50 of 430 nM.
